Reference: ChEMBL document CHEMBL1201862, “PubChem BioAssay data set” (2004)
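1) Cells in 96-well plates. 2) Compound, 48 h, 5 concentrations. 3) Linear interpolation between surrounding doses. 4) Unreached endpoint = highest concentration. GI50 marks 50% less growth.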 Activity calls are given as the source filed them. Cut-off read from the data, not from the text of the source: active = GI50 up to about 1.1 µM and inactive = higher.

Experiments:
Assay in all cases: DTP human tumour cell line panel, 48 h
CCRF-CEM = test system: CCRF-CEM
DLD-1 = test system: DLD-1
SK-OV-3 = test system: SK-OV-3
HCT-15 = test system: HCT-15
SK-MEL-5 = test system: SK-MEL-5
SF-295 = test system: SF-295
HOP-62 = test system: HOP-62
IGROV-1 = test system: IGROV-1
UACC-257 = test system: UACC-257
SK-MEL-28 = test system: SK-MEL-28
NCI-H522 = test system: NCI-H522
KM-20L2 = test system: KM-20L2
Malme-3M = test system: Malme-3M
HOP-18 = test system: HOP-18
U-251 = test system: U-251
MOLT-4 = test system: MOLT-4
SN12C = test system: SN12C
SNB-75 = test system: SNB-75
A498 = test system: A498
HL-60 = test system: HL-60
ACHN = test system: ACHN
XF498 = test system: XF498
DMS-273 = test system: DMS-273
HCC 2998 = test system: HCC 2998
A549 = test system: A549
K562 = test system: K562
NCI-H23 = test system: NCI-H23
LXFL 529 = test system: LXFL 529
RPMI-8226 = test system: RPMI-8226
SF-539 = test system: SF-539
OVCAR-4 = test system: OVCAR-4
SNB-19 = test system: SNB-19
DMS-114 = test system: DMS-114
UACC-62 = test system: UACC-62
OVCAR-8 = test system: OVCAR-8
COLO 205 = test system: COLO 205
HT-29 = test system: HT-29
EKVX = test system: EKVX
RXF 393 = test system: RXF 393
SR = test system: SR
SNB-78 = test system: SNB-78
M14 = test system: M14
SW-620 = test system: SW-620
HOP-92 = test system: HOP-92
UO-31 = test system: UO-31
786-0 = test system: 786-0
NCI-H226 = test system: NCI-H226
SF-268 = test system: SF-268
HCT-116 = test system: HCT-116
M19-MEL = test system: M19-MEL
KM12 = test system: KM12
NCI-H460 = test system: NCI-H460
SK-MEL-2 = test system: SK-MEL-2
TK-10 = test system: TK-10
LOX IMVI = test system: LOX IMVI

Question: How did the GI50 (CCRF-CEM) turn out when `CCOc1ccc(N2C(=O)C3c4[nH]c5ccccc5c4C4CCC(C(C)(C)C)CC4C3C2=O)cc1` (configuration not stated) was run?
Answer: The GI50 was 10.3 µM (inactive).

Question: And the GI50 (DLD-1)?
Answer: The GI50 was 88.9 µM (inactive).

Question: What about the GI50 (SK-OV-3) of the same molecule?
Answer: The GI50 was > 100 µM (inactive).

Question: What about the GI50 (HCT-15) of the same molecule?
Answer: Its GI50 is over 100 µM.

Question: What about the GI50 (SK-MEL-5) of the same molecule?
Answer: Its GI50 is > 100 µM (inactive).

Question: What about the GI50 (SF-295) of the same molecule?
Answer: The GI50 was > 100 µM (inactive).

Question: What about the GI50 (HOP-62) of the same molecule?
Answer: Its GI50 is > 100 µM (inactive).

Question: And the GI50 (IGROV-1)?
Answer: The GI50 was > 100 µM (inactive).

Question: And the GI50 (UACC-257)?
Answer: Its GI50 is > 100 µM (inactive).

Question: And the GI50 (SK-MEL-28)?
Answer: Its GI50 is > 100 µM (inactive).

Question: And the GI50 (NCI-H522)?
Answer: Its GI50 is 66.7 µM (inactive).

Question: What about the GI50 (KM-20L2) of the same molecule?
Answer: The GI50 was 77.8 µM (inactive).

Question: And the GI50 (Malme-3M)?
Answer: Its GI50 is > 100 µM (inactive).

Question: And the GI50 (HOP-18)?
Answer: The GI50 was > 100 µM (inactive).

Question: What about the GI50 (U-251) of the same molecule?
Answer: Its GI50 is > 100 µM (inactive).

Question: What about the GI50 (MOLT-4) of the same molecule?
Answer: Its GI50 is > 100 µM (inactive).

Question: What about the GI50 (SN12C) of the same molecule?
Answer: Its GI50 is 51.3 µM (inactive).

Question: What about the GI50 (SNB-75) of the same molecule?
Answer: The GI50 was > 100 µM (inactive).

Question: What about the GI50 (A498) of the same molecule?
Answer: Its GI50 is > 100 µM (inactive).

Question: What about the GI50 (HL-60) of the same molecule?
Answer: Its GI50 is 44.9 µM (inactive).

Question: What about the GI50 (ACHN) of the same molecule?
Answer: Its GI50 is 57.5 µM (inactive).

Question: What about the GI50 (XF498) of the same molecule?
Answer: The GI50 was > 100 µM (inactive).

Question: What about the GI50 (DMS-273) of the same molecule?
Answer: The GI50 was > 100 µM (inactive).

Question: What about the GI50 (HCC 2998) of the same molecule?
Answer: The GI50 was 28.8 µM (inactive).

Question: What about the GI50 (A549) of the same molecule?
Answer: Its GI50 is 62.4 µM (inactive).

Question: And the GI50 (K562)?
Answer: The GI50 was > 100 µM (inactive).

Question: What about the GI50 (NCI-H23) of the same molecule?
Answer: Its GI50 is 82.8 µM (inactive).

Question: What about the GI50 (LXFL 529) of the same molecule?
Answer: Its GI50 is > 100 µM (inactive).

Question: And the GI50 (RPMI-8226)?
Answer: Its GI50 is > 100 µM (inactive).

Question: What about the GI50 (SF-539) of the same molecule?
Answer: Its GI50 is > 100 µM (inactive).

Question: And the GI50 (OVCAR-4)?
Answer: Its GI50 is > 100 µM (inactive).

Question: And the GI50 (SNB-19)?
Answer: Its GI50 is > 100 µM (inactive).

Question: What about the GI50 (DMS-114) of the same molecule?
Answer: The GI50 was 50 µM (inactive).

Question: What about the GI50 (UACC-62) of the same molecule?
Answer: Its GI50 is > 100 µM (inactive).

Question: And the GI50 (OVCAR-8)?
Answer: Its GI50 is 97.1 µM (inactive).

Question: What about the GI50 (COLO 205) of the same molecule?
Answer: The GI50 was 36.1 µM (inactive).

Question: What about the GI50 (HT-29) of the same molecule?
Answer: Its GI50 is 32.1 µM (inactive).

Question: And the GI50 (EKVX)?
Answer: The GI50 was > 100 µM (inactive).

Question: What about the GI50 (RXF 393) of the same molecule?
Answer: The GI50 was 21.8 µM (inactive).

Question: What about the GI50 (SR) of the same molecule?
Answer: Its GI50 is 42.8 µM (inactive).

Question: And the GI50 (SNB-78)?
Answer: Its GI50 is 90.2 µM (inactive).

Question: What about the GI50 (M14) of the same molecule?
Answer: Its GI50 is > 100 µM (inactive).

Question: And the GI50 (SW-620)?
Answer: The GI50 was > 100 µM (inactive).

Question: And the GI50 (HOP-92)?
Answer: Its GI50 is > 100 µM (inactive).

Question: And the GI50 (UO-31)?
Answer: Its GI50 is 69.2 µM (inactive).

Question: And the GI50 (786-0)?
Answer: Its GI50 is 50.6 µM (inactive).

Question: And the GI50 (NCI-H226)?
Answer: Its GI50 is 56.5 µM (inactive).

Question: What about the GI50 (SF-268) of the same molecule?
Answer: The GI50 was > 100 µM (inactive).

Question: And the GI50 (HCT-116)?
Answer: The GI50 was 49.2 µM (inactive).

Question: Which GI50 (CCRF-CEM) does the source give for `O=C(CSc1nnc(Cc2ccccc2)o1)Nc1ccc(Cl)cc1[N+](=O)[O-]` here?
Answer: The GI50 was 15.6 µM (inactive).

Question: What about the GI50 (M19-MEL) of the same molecule?
Answer: The GI50 was 17 µM (inactive).

Question: What about the GI50 (SK-OV-3) of the same molecule?
Answer: Its GI50 is 34.5 µM (inactive).

Question: And the GI50 (HCT-15)?
Answer: Its GI50 is 16.5 µM.

Question: What about the GI50 (SK-MEL-5) of the same molecule?
Answer: Its GI50 is 16.9 µM (inactive).

Question: What about the GI50 (SF-295) of the same molecule?
Answer: Its GI50 is 18.7 µM (inactive).

Question: And the GI50 (HOP-62)?
Answer: Its GI50 is 17.4 µM (inactive).

Question: And the GI50 (UACC-257)?
Answer: The GI50 was 19.9 µM (inactive).

Question: What about the GI50 (KM12) of the same molecule?
Answer: Its GI50 is > 10 µM (inactive).

Question: And the GI50 (SK-MEL-28)?
Answer: Its GI50 is 15.5 µM (inactive).

Question: What about the GI50 (NCI-H522) of the same molecule?
Answer: Its GI50 is 3.17 µM (inactive).

Question: And the GI50 (KM-20L2)?
Answer: Its GI50 is 22.5 µM (inactive).

Question: What about the GI50 (Malme-3M) of the same molecule?
Answer: Its GI50 is 16.4 µM (inactive).

Question: And the GI50 (HOP-18)?
Answer: Its GI50 is 14.7 µM (inactive).

Question: What about the GI50 (U-251) of the same molecule?
Answer: The GI50 was 19.5 µM (inactive).

Question: And the GI50 (MOLT-4)?
Answer: Its GI50 is 18.9 µM (inactive).

Question: And the GI50 (SN12C)?
Answer: Its GI50 is 17.5 µM (inactive).

Question: And the GI50 (SNB-75)?
Answer: The GI50 was 18.9 µM (inactive).

Question: And the GI50 (HL-60)?
Answer: The GI50 was 24.7 µM (inactive).

Question: And the GI50 (ACHN)?
Answer: The GI50 was 12.6 µM (inactive).

Question: And the GI50 (XF498)?
Answer: The GI50 was 17.5 µM (inactive).

Question: And the GI50 (DMS-273)?
Answer: Its GI50 is 19.7 µM (inactive).

Question: What about the GI50 (A549) of the same molecule?
Answer: The GI50 was 18.9 µM (inactive).

Question: And the GI50 (NCI-H460)?
Answer: The GI50 was > 10 µM (inactive).

Question: And the GI50 (K562)?
Answer: The GI50 was 25.6 µM (inactive).

Question: What about the GI50 (NCI-H23) of the same molecule?
Answer: The GI50 was 17.4 µM (inactive).

Question: And the GI50 (LXFL 529)?
Answer: Its GI50 is 17.1 µM (inactive).

Question: And the GI50 (RPMI-8226)?
Answer: Its GI50 is 17.9 µM (inactive).

Question: What about the GI50 (OVCAR-4) of the same molecule?
Answer: The GI50 was 18.8 µM (inactive).

Question: What about the GI50 (SNB-19) of the same molecule?
Answer: The GI50 was 14.4 µM (inactive).

Question: And the GI50 (UACC-62)?
Answer: Its GI50 is 14.2 µM (inactive).

Question: And the GI50 (OVCAR-8)?
Answer: Its GI50 is 29.8 µM (inactive).

Question: What about the GI50 (COLO 205) of the same molecule?
Answer: The GI50 was 21.9 µM (inactive).

Question: What about the GI50 (HT-29) of the same molecule?
Answer: The GI50 was 22.3 µM (inactive).

Question: What about the GI50 (EKVX) of the same molecule?
Answer: The GI50 was 20.3 µM (inactive).

Question: And the GI50 (RXF 393)?
Answer: Its GI50 is 19.2 µM (inactive).

Question: What about the GI50 (SR) of the same molecule?
Answer: Its GI50 is 26.2 µM (inactive).

Question: And the GI50 (SNB-78)?
Answer: Its GI50 is 20 µM (inactive).

Question: And the GI50 (M14)?
Answer: Its GI50 is 16.5 µM (inactive).

Question: What about the GI50 (SW-620) of the same molecule?
Answer: Its GI50 is 25.1 µM (inactive).

Question: What about the GI50 (SK-MEL-2) of the same molecule?
Answer: The GI50 was 15.9 µM (inactive).

Question: And the GI50 (UO-31)?
Answer: Its GI50 is 18.4 µM (inactive).

Question: And the GI50 (TK-10)?
Answer: The GI50 was 17.1 µM (inactive).

Question: And the GI50 (786-0)?
Answer: Its GI50 is 16.5 µM (inactive).

Question: What about the GI50 (NCI-H226) of the same molecule?
Answer: The GI50 was 21.2 µM (inactive).

Question: What about the GI50 (SF-268) of the same molecule?
Answer: Its GI50 is 21.5 µM (inactive).

Question: And the GI50 (LOX IMVI)?
Answer: The GI50 was 13.1 µM (inactive).

Question: And the GI50 (HCT-116)?
Answer: Its GI50 is 14 µM (inactive).
